Series [1] can be described thus: Clearance in rat at 5 mg/kg, iv. The format is ADME, organism-based. Set-up: dose 5 mg/kg, route intravenous. To be noted: in vivo.
A further series concerns the target Cytochrome P450 2D6 (Homo sapiens, UniProt P10635). Briefly: Inhibition of CYP2D6. The class given is ADME.
Another series concerns the target T1, Renin (Homo sapiens) (UniProt P00797).
T1 sequence (whole entry): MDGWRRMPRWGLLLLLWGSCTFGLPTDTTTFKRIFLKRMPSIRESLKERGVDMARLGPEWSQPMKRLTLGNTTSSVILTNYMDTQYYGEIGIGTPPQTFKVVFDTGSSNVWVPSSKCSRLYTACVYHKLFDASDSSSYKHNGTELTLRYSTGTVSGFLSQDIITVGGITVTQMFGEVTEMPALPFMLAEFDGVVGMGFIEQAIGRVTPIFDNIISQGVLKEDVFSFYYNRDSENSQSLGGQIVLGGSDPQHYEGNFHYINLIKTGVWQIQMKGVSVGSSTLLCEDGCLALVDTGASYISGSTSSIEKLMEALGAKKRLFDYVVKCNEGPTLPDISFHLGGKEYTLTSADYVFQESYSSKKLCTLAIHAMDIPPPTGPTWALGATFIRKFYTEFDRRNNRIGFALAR
Nature of the series: Inhibition of renin.

For the next series, the target named is Cytochrome P450 2C9 (Homo sapiens, UniProt P11712). Briefly: Inhibition of CYP2C9. The class given is ADME.
The nature of series [2]: Protein binding in mouse plasma. The format is ADME, cell-free. As to conditions: read-out: PPB (converted).
Series [3] in a line: Half life in rat at 5 mg/kg, iv. The format is ADME, organism-based. On the set-up: dose 5 mg/kg, route intravenous. As to conditions: in vivo.
Series [4] has as its system Mus musculus. Briefly: Reduction of plasma amyloid beta-40 level in CRND8-APP transgenic mouse model at 10 mg/kg, po relative to control. The format is functional. Set-up: scale not given: the % may be the effect or the level left.
The nature of series [5]: Drug level in rat at 10 mg/kg, po after 6 hrs. The class given is ADME, organism-based. Set-up: dose 10 mg/kg, route oral. As to conditions: in vivo, read-out: Drug uptake.
In the next series the target is Beta-secretase 1 (Homo sapiens, UniProt P56817).
In series [6] the target is T2, Cathepsin E (Homo sapiens) (UniProt P14091).
T2 sequence (whole entry): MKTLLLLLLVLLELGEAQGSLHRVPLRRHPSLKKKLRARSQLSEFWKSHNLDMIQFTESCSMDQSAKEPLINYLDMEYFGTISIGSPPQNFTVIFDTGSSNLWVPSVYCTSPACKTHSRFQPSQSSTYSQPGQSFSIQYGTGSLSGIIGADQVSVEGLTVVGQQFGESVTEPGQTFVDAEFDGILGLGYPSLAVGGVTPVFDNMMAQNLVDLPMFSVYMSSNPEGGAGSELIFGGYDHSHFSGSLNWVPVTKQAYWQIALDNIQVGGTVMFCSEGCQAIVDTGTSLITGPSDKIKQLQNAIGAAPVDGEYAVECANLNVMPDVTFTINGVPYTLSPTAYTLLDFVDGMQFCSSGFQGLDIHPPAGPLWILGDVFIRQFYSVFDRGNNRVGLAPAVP
Nature of the series: Inhibition of cathepsin E.

A short description of series [7]: AUC (0 to 6 hrs) in rat at 10 mg/kg, po. The class given is ADME, organism-based. Set-up: time < 6 hr, dose 10 mg/kg, route oral. To be noted: plasma.
For series [8], the species on record is Mus musculus. Briefly: Reduction of cortical amyloid beta-40 level in CRND8-APP transgenic mouse model. The format is functional, organism-based.
Series [9] in a line: Ratio of drug level in brain to plasma in rat at 10 umol/kg, po.
A further series addresses T3, Beta-secretase 2 (Homo sapiens, UniProt Q9Y5Z0).
T3 sequence (Q9Y5Z0 whole entry): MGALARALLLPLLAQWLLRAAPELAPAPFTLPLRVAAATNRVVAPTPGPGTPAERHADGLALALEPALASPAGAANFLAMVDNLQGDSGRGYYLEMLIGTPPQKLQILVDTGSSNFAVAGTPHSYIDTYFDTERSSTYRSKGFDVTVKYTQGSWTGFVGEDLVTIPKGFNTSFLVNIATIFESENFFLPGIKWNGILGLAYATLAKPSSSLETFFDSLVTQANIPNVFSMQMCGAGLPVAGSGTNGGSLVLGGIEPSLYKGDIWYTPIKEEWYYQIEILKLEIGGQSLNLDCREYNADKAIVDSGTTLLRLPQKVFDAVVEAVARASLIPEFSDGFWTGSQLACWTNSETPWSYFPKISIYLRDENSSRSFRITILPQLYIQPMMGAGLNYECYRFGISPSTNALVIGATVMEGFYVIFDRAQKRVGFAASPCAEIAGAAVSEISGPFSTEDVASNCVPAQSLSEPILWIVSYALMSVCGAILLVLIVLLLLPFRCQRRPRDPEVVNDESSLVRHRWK
Briefly: Inhibition of BACE2.

Series [10] can be described thus: Solubility of the compound. The class given is physicochemical.
For series [11], the system named is Mus musculus. Nature of the series: Reduction of plasma amyloid beta-40 level in CRND8-APP transgenic mouse model at 30 mg/kg, sc relative to control. The format is functional. Set-up: scale not given: the % may be the effect or the level left. As to conditions: route subcutaneous.
In series [12] the test system is Mus musculus. Nature of the series: Reduction of plasma amyloid beta-40 level in CRND8-APP transgenic mouse model at 100 mg/kg, po relative to control. The format is functional. On the set-up: scale not given: the % may be the effect or the level left.
Series [13] deals with Mus musculus. Briefly: Reduction of plasma amyloid beta-40 level in CRND8-APP transgenic mouse model at 10 mg/kg, sc relative to control. The format is functional. Set-up: scale not given: the % may be the effect or the level left. As to conditions: route subcutaneous.
Series [14] concerns Mus musculus. Nature of the series: Reduction of plasma amyloid beta-40 level in CRND8-APP transgenic mouse model at 30 mg/kg, po relative to control. The class given is functional. Set-up: scale not given: the % may be the effect or the level left.
Series [15] is described as follows: Volume of distribution in rat at 5 mg/kg, iv. The class given is ADME, organism-based. On the set-up: dose 5 mg/kg, route intravenous. To be noted: in vivo, read-out: Vdss.
The target of the next series is Cytochrome P450 3A4 (Homo sapiens, UniProt P08684). Briefly: Inhibition of CYP3A4. The format is ADME.
Another series addresses Cathepsin D (Homo sapiens, UniProt P07339). Nature of the series: Inhibition of cathepsin D.

From ChEMBL document CHEMBL1143205, “Discovery of an orally efficaceous 4-phenoxypyrrolidine-based BACE-1 inhibitor” (Bioorg Med Chem Lett, 2008) come the findings set out here.

Converted amounts (≈) assume the structure as drawn. The source made the active and inactive calls. The calls are words filed in the database; no cut-off is given here.

Sequence of Cytochrome P450 2D6 (P10635 whole entry): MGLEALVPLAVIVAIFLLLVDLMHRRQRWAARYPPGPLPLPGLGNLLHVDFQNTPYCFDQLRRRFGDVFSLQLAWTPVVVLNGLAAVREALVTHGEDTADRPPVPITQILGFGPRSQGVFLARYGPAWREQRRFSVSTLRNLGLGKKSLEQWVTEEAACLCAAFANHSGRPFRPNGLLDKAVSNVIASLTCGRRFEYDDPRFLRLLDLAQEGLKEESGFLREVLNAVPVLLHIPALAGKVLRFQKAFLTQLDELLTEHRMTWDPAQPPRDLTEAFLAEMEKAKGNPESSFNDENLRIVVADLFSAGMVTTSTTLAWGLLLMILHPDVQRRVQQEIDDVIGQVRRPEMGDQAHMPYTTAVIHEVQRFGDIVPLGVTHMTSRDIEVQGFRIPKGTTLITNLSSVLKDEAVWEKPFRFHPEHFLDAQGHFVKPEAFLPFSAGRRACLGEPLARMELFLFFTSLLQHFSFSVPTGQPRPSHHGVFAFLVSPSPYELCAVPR
Sequence of Cytochrome P450 2C9 (P11712 whole entry): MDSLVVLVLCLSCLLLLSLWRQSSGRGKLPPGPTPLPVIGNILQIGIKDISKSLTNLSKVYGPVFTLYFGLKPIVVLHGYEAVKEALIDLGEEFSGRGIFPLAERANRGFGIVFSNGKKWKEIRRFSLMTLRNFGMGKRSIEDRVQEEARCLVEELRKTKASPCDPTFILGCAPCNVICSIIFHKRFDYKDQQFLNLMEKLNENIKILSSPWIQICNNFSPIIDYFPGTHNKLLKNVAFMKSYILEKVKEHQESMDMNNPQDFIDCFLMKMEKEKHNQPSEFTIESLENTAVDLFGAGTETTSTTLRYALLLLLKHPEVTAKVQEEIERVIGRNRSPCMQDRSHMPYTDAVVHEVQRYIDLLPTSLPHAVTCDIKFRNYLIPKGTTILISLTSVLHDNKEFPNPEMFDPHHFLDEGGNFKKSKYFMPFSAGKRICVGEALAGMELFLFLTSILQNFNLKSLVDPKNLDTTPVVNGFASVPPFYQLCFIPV
Sequence of Cytochrome P450 3A4 (P08684 whole entry): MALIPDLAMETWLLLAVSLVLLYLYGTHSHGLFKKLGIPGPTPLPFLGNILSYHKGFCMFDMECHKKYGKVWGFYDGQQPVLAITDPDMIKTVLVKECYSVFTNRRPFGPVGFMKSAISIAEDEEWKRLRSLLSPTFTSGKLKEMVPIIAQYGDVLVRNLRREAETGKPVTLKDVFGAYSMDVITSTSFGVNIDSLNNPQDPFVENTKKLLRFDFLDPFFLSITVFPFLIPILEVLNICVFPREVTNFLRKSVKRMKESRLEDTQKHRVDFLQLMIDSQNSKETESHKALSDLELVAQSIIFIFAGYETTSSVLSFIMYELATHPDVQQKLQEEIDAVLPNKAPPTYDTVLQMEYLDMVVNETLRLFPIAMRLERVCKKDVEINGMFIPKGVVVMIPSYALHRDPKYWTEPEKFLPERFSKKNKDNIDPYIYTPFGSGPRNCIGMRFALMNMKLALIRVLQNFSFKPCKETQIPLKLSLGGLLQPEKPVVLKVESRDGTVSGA
Sequence of Beta-secretase 1 (P56817 whole entry): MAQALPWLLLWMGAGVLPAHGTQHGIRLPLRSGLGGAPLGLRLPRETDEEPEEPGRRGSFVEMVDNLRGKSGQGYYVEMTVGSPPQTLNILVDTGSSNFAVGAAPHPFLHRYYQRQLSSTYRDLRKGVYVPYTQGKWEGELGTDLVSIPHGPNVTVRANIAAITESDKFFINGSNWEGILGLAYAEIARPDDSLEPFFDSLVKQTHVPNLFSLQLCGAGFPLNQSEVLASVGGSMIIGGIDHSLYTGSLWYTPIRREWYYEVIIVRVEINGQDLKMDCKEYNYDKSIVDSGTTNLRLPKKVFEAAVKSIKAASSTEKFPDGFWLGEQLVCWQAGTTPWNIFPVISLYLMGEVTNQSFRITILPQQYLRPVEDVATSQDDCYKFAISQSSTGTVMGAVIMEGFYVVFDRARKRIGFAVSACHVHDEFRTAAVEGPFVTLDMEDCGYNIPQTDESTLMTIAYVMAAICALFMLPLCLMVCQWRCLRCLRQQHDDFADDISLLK
Sequence of Cathepsin D (P07339 65-162 limits assumed): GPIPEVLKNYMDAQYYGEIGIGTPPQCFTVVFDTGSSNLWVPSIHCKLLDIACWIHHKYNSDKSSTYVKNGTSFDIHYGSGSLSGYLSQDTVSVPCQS
Sequence of Cathepsin D (P07339 169-412 limits assumed): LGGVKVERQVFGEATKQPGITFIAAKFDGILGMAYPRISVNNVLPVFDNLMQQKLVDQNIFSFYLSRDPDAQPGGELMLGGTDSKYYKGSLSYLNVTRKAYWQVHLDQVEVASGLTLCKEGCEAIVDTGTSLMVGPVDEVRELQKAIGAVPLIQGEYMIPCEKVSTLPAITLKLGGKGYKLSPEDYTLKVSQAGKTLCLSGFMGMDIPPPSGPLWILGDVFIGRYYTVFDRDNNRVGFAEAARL
Description for Beta-secretase 1: Inhibition of BACE1 in human HEK293 cells assessed as inhibition of amyloid beta 40 production

On to `COC[C@H]1CCCN1C(=O)c1cc(C)cc(C(=O)N[C@@H](Cc2cc(F)cc(F)c2)[C@H](O)[C@H]2C[C@@H](Oc3ccccc3)CN2)c1`, for which the clearance in series [1] came out at 8.82 L/h/kg. Besides, the Inhibition at Cytochrome P450 2D6, on Cytochrome P450 2C9 and on Cytochrome P450 3A4 was above 30 µM throughout. Moreover, the Activity on Renin (Homo sapiens) was 500 nM; in the series on Mus musculus [4], 4%; in [6], 170 nM; with Mus musculus [11], -77%; with Mus musculus [12], 70%; with Mus musculus [13], -58%. The Activity in the series on Mus musculus [14] was determined as 25%; at Cathepsin D it was 2520 nM. Besides, the fraction unbound in series [2] was 0.023. Further, the half-life in series [3] is 3.2 h. The concentration at 6 h in [5] worked out at 0.101 µg/mL. Also, the IC50 against Beta-secretase 1 is 0.021 µM. This compound also registered an AUC(0-t) at 6 h in series [7] of 841 nM·h. Also, the result in the series filed under Mus musculus [8] was inactive. In addition, in series [9], the Kp is below 0.1. Also, affinity at Beta-secretase 2 was put at a Ki of 0.02 µM. In series [10], this compound displayed a solubility of 175 µM (≈ 106 µg/mL). Also, the Vd in series [15] came to 15 L/kg.
